Tests used:
Format in all cases: in vivo
[1] = system: corn (Zea mays); assay: Test A1 preemergence, corn
How it was run: (§1)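 Both timings started from seed in a loam-sand blend. Preemergence pots got a directed soil application immediately; postemergence pots were sprayed when seedlings had one or two leaves and stood 2–10 cm. Each compound was prepared in a non-phytotoxic solvent plus surfactant.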

[2] = system: Foxtail, Giant (giant foxtail, Setaria faberi); assay: Test A1 preemergence, Foxtail, Giant
How it was run: as §1

[3] = system: Pigweed, Palmer (palmer amaranth, palmer pigweed, Amaranthus palmeri); assay: Test A1 preemergence, Pigweed, Palmer
How it was run: as §1

[4] = system: Ryegrass, Italian (Italian ryegrass, Lolium multiflorum); assay: Test A1 preemergence, Ryegrass, Italian
How it was run: as §1

[5] = system: soybean (Glycine max); assay: Test A1 preemergence, soybean
How it was run: as §1

[6] = system: blackgrass (Alopecurus myosuroides); assay: Test A1 postemergence, blackgrass; conditions: Postemergence, 0 to 100 scale (0 no effect, 100 complete control)
How it was run: as §1

[7] = system: Foxtail, Giant (giant foxtail, Setaria faberi); assay: Test A1 postemergence, Foxtail, Giant; conditions: Postemergence
How it was run: as §1

[8] = system: wheat (Triticum aestivum); assay: Test A1 postemergence, wheat; conditions: Postemergence
How it was run: as §1

[9] = system: barnyardgrass (Echinochloa crus-galli); assay: Test B1 flooded paddy test, barnyardgrass; conditions: 250 g ai/ha, Flood, applied to paddy water, 2-leaf stage, visually evaluated after 10 to 14 days
Source text: (§2) A dash (-) response means no test result.

[10] = system: rice (Oryza sativa); assay: Test B1 flooded paddy test, rice; conditions: 250 g ai/ha, Flood, applied to paddy water, 2-leaf stage, visually evaluated after 10 to 14 days
Source text: as §2

[11] = 31 g ai/ha, 0 to 100 scale (0 no effect, 100 complete control)
[12] = 125 g ai/ha, 0 to 100 scale, 0 no effect, 100 complete control
[13] = 31 g ai/ha, 0 to 100 scale (0 no effect, 100 complete control), 10 days

| SMILES | Plant response rating, Corn [1, 11] | Plant response rating, Corn [1, 12] | Plant response rating, Foxtail, Giant [2, 11] | Plant response rating, Foxtail, Giant [2, 12] | Plant response rating, Pigweed, Palmer [3, 11] | Plant response rating, Pigweed, Palmer [3, 12] | Plant response rating, Ryegrass, Italian [4, 11] | Plant response rating, Ryegrass, Italian [4, 12] | Plant response rating, Soybean [5, 11] | Plant response rating, Soybean [5, 12] | Plant response rating, Blackgrass ([6]; 31 g ai/ha, 10 days) | Plant response rating, Blackgrass ([6]; 125 g ai/ha) | Plant response rating, Foxtail, Giant [7, 13] | Plant response rating, Foxtail, Giant ([7]; 125 g ai/ha, 0 to 100 scale) | Plant response rating, Wheat [8, 13] | Plant response rating, Wheat ([8]; 125 g ai/ha, 0 to 100 scale) | Plant response rating, Barnyardgrass (0 to 100 scale, 0 is no effect, 100 is complete control) [9] | Plant response rating, Rice (0 to 100 scale, 0 is no effect, 100 is complete control) [10] |
| --- | --- | --- | --- | --- | --- | --- | --- | --- | --- | --- | --- | --- | --- | --- | --- | --- | --- | --- |
| Cc1c(NS(=O)(=O)C(F)(F)F)cc(C(=O)N2CC(C)OC(C)C2)c(C)c1C (stereo not drawn) [Compound 327] | 0 | 60 | 100 | 100 | 90 | 90 | 40 | 50 | 30 | 90 | 0 | 0 | 30 | 90 | 0 | 50 | 30 | 0 |
| Cc1c(NS(=O)(=O)C(F)(F)F)cc(C(=O)N2CC(C)OC(C)C2)c(C)c1C (stereo not drawn) [Compound 328] | 10 | 60 | 20 | 100 | 100 | 100 | 30 | 100 | 50 | 90 | 0 | 0 | 0 | 70 | 0 | 50 | 40 | 0 |
| C#CCN(C)C(=O)c1cc(NS(=O)(=O)C(F)(F)F)c(Cl)c(F)c1C [Compound 337] | 0 | 70 | 20 | 100 | 40 | 100 | 30 | 100 | 40 | 90 | 0 | 30 | 0 | 90 | 0 | 30 | 0 | 25 |
| COCC1CC(c2cc(N(COC(=O)C(C)(C)C)S(=O)(=O)C(F)(F)F)c(C)cc2C)=NO1 (stereo not drawn) [Compound 338] | 10 | 50 | 10 | 90 | 0 | 40 | 30 | 30 | 0 | 20 | 0 | 0 | 10 | 80 | 20 | 70 | 95 | 20 |
| CCC1ON=C(c2cc(NS(=O)(=O)C(F)(F)F)c(C)cc2C)C1CC (stereo not drawn) [Compound 343] | 10 | 60 | 90 | 100 | 40 | 90 | 60 | 100 | 50 | 60 | 10 | 30 | 0 | 30 | 30 | 60 | 85 | 40 |
| CCC1ON=C(c2cc(N(COC(=O)C(C)(C)C)S(=O)(=O)C(F)(F)F)c(C)cc2C)C1CC (stereo not drawn) [Compound 344] | 10 | 10 | 30 | 100 | 50 | 80 | 20 | 40 | 50 | 50 | 0 | 50 | 10 | 30 | 40 | 70 | 95 | 40 |
| CCC1ON=C(c2cc(N(C(=O)OCC(C)C)S(=O)(=O)C(F)(F)F)c(C)cc2C)C1CC (stereo not drawn) [Compound 345] | 10 | 10 | 40 | 100 | 80 | 100 | 30 | 80 | 0 | 0 | 20 | 40 | 30 | 50 | 30 | 60 | 95 | 25 |
| CCC1ON=C(c2cc(NS(=O)(=O)C(F)(F)F)c(C)cc2C)C1CC (stereo not drawn) [Compound 346] | 10 | 20 | 60 | 100 | 100 | 100 | 50 | 90 | 50 | 50 | 0 | 60 | 30 | 50 | 30 | 70 | 90 | 15 |
| CCC1ON=C(c2cc(N(COC(=O)C(C)(C)C)S(=O)(=O)C(F)(F)F)c(C)cc2C)C1CC (stereo not drawn) [Compound 347] | 0 | 0 | 0 | 60 | 20 | 50 | 0 | 0 | 0 | 0 | 0 | 30 | 20 | 30 | 0 | 40 | 95 | 25 |

— US20230278972A1, “SUBSTITUTED HALOALKYL SULFONANILIDE HERBICIDES” (FMC Corporation, priority 2020, published 2023)
